In PubChem BioAssay AID1259411 (Chemical Carcinogenesis Research Information System (CCRIS), 2018):
Activity calls are given as the source filed them. The rule behind the calls is not given here.

Test system: rodent carcinogenicity bioassays, tumor incidence
Test: CCRIS carcinogenicity studies
Summary of the method: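 NCI-built, expert-reviewed records of carcinogenicity and related test outcomes (mutagenicity, tumor promotion/inhibition) compiled from published and report sources, historical span 1985-2011, not updated.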

Structure (SMILES): N#CN=C(N)N
- carcinogen call (Species: RAT, Strain/Sex: F344/FEMALE, Route: ORAL, Dose: 0, 2.5, 5% IN DIET FOR 104 WK (STUDY DURATION: 113 WK), Dose: 0, 2.5, 5% IN DIET FOR 104 WK (STUDY DURATION: 113 WK)): inactive; negative
- carcinogen call (Species: RAT, Strain/Sex: F344/MALE, Route: ORAL, Dose: 0, 2.5, 5% IN DIET FOR 104 WK (STUDY DURATION: 113 WK), Dose: 0, 2.5, 5% IN DIET FOR 104 WK (STUDY DURATION: 113 WK)): inactive; negative

Structure (SMILES): CC(C)C/C=N/N(C)C=O
- carcinogen call (Species: MOUSE, Strain/Sex: SWISS/FEMALE, Route: GAVAGE, Dose: 0, 50 UG/G BW DISSOLVED IN PROPYLENE GLYCOL 1/WK FOR 2 WK (STUDY DURATION: LIFETIME), Tumor Site: Type of Lesion: THYROID: TUMOR, LUNG: TUMOR): active; positive
- carcinogen call (Species: MOUSE, Strain/Sex: SWISS/FEMALE, Route: GAVAGE, Dose: 0, 50 UG/G BW DISSOLVED IN PROPYLENE GLYCOL 1/WK FOR 53 WK (STUDY DURATION: LIFETIME), Tumor Site: Type of Lesion: LUNG: TUMOR, LIVER: TUMOR, GALLBLADDER: TUMOR, Tumor Site: Type of Lesion: LUNG: TUMOR, LIVER: TUMOR, GALLBLADDER: TUMOR): active; positive
- carcinogen call (Species: MOUSE, Strain/Sex: SWISS/MALE, Route: GAVAGE, Dose: 0, 50 UG/G BW DISSOLVED IN PROPYLENE GLYCOL 1/WK FOR 2 WK (STUDY DURATION: LIFETIME), Tumor Site: Type of Lesion: LUNG: TUMOR, THYROID: TUMOR): active; positive
- carcinogen call (Species: MOUSE, Strain/Sex: SWISS/MALE, Route: GAVAGE, Dose: 0, 50 UG/G BW DISSOLVED IN PROPYLENE GLYCOL 1/WK FOR 53 WK (STUDY DURATION: LIFETIME), Tumor Site: Type of Lesion: LUNG: TUMOR, LIVER: TUMOR, GALLBLADDER: TUMOR, PREPUTIAL GLAND: TUMOR, Tumor Site: Type of Lesion: LUNG: TUMOR, LIVER: TUMOR, GALLBLADDER: TUMOR, PREPUTIAL GLAND: TUMOR): active; positive

Structure (SMILES): CCOc1ccc(N(O)C(C)=O)cc1
- carcinogen call (Species: RAT, Strain/Sex: ALBINO/MALE, Route: ORAL, Dose: 0.05, 0.1, 0.5% IN DIET, Dose: 0.05, 0.1, 0.5% IN DIET, Tumor Site: Type of Lesion: LIVER: HEPATOCELLULAR CARCINOMA): active; positive

Structure (SMILES): COc1cc(OC)nc(NC(=O)NS(=O)(=O)c2c(Cl)nc3ccccn23)n1
- carcinogen call (Species: Mouse, Strain/Sex: CD-1/Female (50/Group), Route: Oral, Dose: 0, 86.8, 870.0, 10,303.5 mg/kg/day of 99.6-99.8% imazosulfuron in diet for 18 mo, study duration 18 mo, Dose: 0, 86.8, 870.0, 10,303.5 mg/kg/day of 99.6-99.8% imazosulfuron in diet for 18 mo, study duration 18 mo): inactive; negative
- carcinogen call (Species: Mouse, Strain/Sex: CD-1/Male (50/Group), Route: Oral, Dose: 0, 72.7, 741.3, 7848.1 mg/kg/day of 99.6-99.8% imazosulfuron in diet for 18 mo, study duration 18 mo, Dose: 0, 72.7, 741.3, 7848.1 mg/kg/day of 99.6-99.8% imazosulfuron in diet for 18 mo, study duration 18 mo): inactive; negative
- carcinogen call (Species: Rat, Strain/Sex: CD (Sprague-Dawley derived)/Female (50/Group), Route: Oral, Dose: 0, 12.94, 132.46, 1554.35 mg/kg/day of 99.6-99.8% imazosulfuron in diet for 24 mo, study duration 24 mo, Dose: 0, 12.94, 132.46, 1554.35 mg/kg/day of 99.6-99.8% imazosulfuron in diet for 24 mo, study duration 24 mo): inactive; negative
- carcinogen call (Species: Rat, Strain/Sex: CD (Sprague-Dawley derived)/Male (50/Group), Route: Oral, Dose: 0, 10.39, 106.10, 1123.99 mg/kg/day of 99.6-99.8% imazosulfuron in diet for 24 mo, study duration 24 mo, Dose: 0, 10.39, 106.10, 1123.99 mg/kg/day of 99.6-99.8% imazosulfuron in diet for 24 mo, study duration 24 mo): inactive; negative

Structure (SMILES): Cc1c([N+](=O)[O-])c2ccccc2c2ccc3ccccc3c12
- carcinogen call (Species: MOUSE, Strain/Sex: SWISS/FEMALE, Route: INTRAPERITONEAL, Dose: 0, 100 NMOL (TOTAL DOSE) ADMINISTERED 1/7, 2/7 AND 4/7 ON DAY 1, 8 AND 15 RESPECTIVELY (STUDY DURATION: 32 WK)): inactive; negative
- carcinogen call (Species: MOUSE, Strain/Sex: SWISS/MALE, Route: INTRAPERITONEAL, Dose: 0, 100 NMOL (TOTAL DOSE) ADMINISTERED 1/7, 2/7 AND 4/7 ON DAY 1, 8 AND 15 RESPECTIVELY (STUDY DURATION: 32 WK), Tumor Site: Type of Lesion: LIVER: TUMOR): active; positive

Structure (SMILES): OCCO
- carcinogen call (Species: MOUSE, Strain/Sex: B6C3F1/FEMALE, Route: ORAL, Dose: 0, 12500, 25000, 50000 PPM IN DIET FOR 721 D (STUDY DURATION: 105 WK), Dose: 0, 12500, 25000, 50000 PPM IN DIET FOR 721 D (STUDY DURATION: 105 WK)): inactive; negative
- carcinogen call (Species: MOUSE, Strain/Sex: B6C3F1/MALE, Route: ORAL, Dose: 0, 6250, 12500, 25000 PPM IN DIET FOR 721 D (STUDY DURATION: 105 WK), Dose: 0, 6250, 12500, 25000 PPM IN DIET FOR 721 D (STUDY DURATION: 105 WK)): inactive; negative

Structure (SMILES): O=NN1CCC[C@H]1c1cccnc1
- carcinogen call (Species: HAMSTER, Route: SUBCUTANEOUS, Tumor Site: Type of Lesion: TRACHEA): active; positive
- carcinogen call (Species: MINK, Strain/Sex: MALE, FEMALE, Route: SUBCUTANEOUS, Dose: 0, 11.9 MILLIMOLAR (TOTAL DOSE) GIVEN IN SUBDOSES 2/WK FOR 38 WK (STUDY DURATION: 185 WK), Tumor Site: Type of Lesion: NASAL CAVITY: TUMORS): active; positive
- carcinogen call (Species: MOUSE, Route: INTRAPERITONEAL, Tumor Site: Type of Lesion: LUNG): active; positive
- carcinogen call (Species: MOUSE, Strain/Sex: CFLP/FEMALE, Route: DERMAL, Dose: 0, 12.5, 50, 200 UG IN ACETONE 2 D/WK FOR 104 WK (STUDY DURATION: 24 MO), Dose: 0, 12.5, 50, 200 UG IN ACETONE 2 D/WK FOR 104 WK (STUDY DURATION: 24 MO)): inactive; negative
- carcinogen call (Species: MOUSE, Strain/Sex: STRAIN-A/FEMALE, Route: INTRAPERITONEAL, Dose: 0, 40, 200 UMOL TOTAL DOSE ADMINISTERED IN SUBDOSES 3/WK FOR 7 WK (STUDY DURATION: 37 WK), Dose: 0, 40, 200 UMOL TOTAL DOSE ADMINISTERED IN SUBDOSES 3/WK FOR 7 WK (STUDY DURATION: 37 WK), Tumor Site: Type of Lesion: LUNG: TUMOR): active; positive
- carcinogen call (Species: RAT, Route: ORAL, Tumor Site: Type of Lesion: ESOPHAGUS, NASAL CAVITY): active; positive
- carcinogen call (Species: RAT, Strain/Sex: F344/FEMALE, Route: SUBCUTANEOUS, Dose: 0, 1, 3, 9 MMOL/KG BW (TOTAL DOSE) WITH SUBDOSES GIVEN 3/WK FOR 20 WK WITH A 2 WK INTERRUPTION AFTER 7 WK (STUDY DURATIO, Dose: 0, 1, 3, 9 MMOL/KG BW (TOTAL DOSE) WITH SUBDOSES GIVEN 3/WK FOR 20 WK WITH A 2 WK INTERRUPTION AFTER 7 WK (STUDY DURATIO, Tumor Site: Type of Lesion: NASAL CAVITY: TUMORS, ESOPHAGUS: BENIGN TUMORS): active; positive
- carcinogen call (Species: RAT, Strain/Sex: F344/MALE, Route: SUBCUTANEOUS, Dose: 0, 1, 3, 9 MMOL/KG BW (TOTAL DOSE) WITH SUBDOSES GIVEN 3/WK FOR 20 WK WITH A 2 WK INTERRUPTION AFTER 7 WK (STUDY DURATIO, Dose: 0, 1, 3, 9 MMOL/KG BW (TOTAL DOSE) WITH SUBDOSES GIVEN 3/WK FOR 20 WK WITH A 2 WK INTERRUPTION AFTER 7 WK (STUDY DURATIO, Tumor Site: Type of Lesion: NASAL CAVITY: TUMORS, LUNG: TUMORS, ESOPHAGUS: BENIGN TUMORS, Tumor Site: Type of Lesion: NASAL CAVITY: TUMORS, LUNG: TUMORS, ESOPHAGUS: BENIGN TUMORS): active; positive
